Consider two molecules from patent US20170190705A1, “Compositions and Methods for Inhibiting BMP” (THE BRIGHAM AND WOMAN'S HOSPITAL, INC., priority 2014, published 2017).

Common to all, as to type: biochemical
The target in one experiment is BRK (Homo sapiens, UniProt Q13882). Put plainly: Kinome profiling BRK. To be noted: read-out: Inhibitory activity BRK; for inhibition at 0.1 µM: 100 nM. How it is done:
(§1) . The kinome-wide selectivity was determined following the methods previously reported by Mohedas et al., ACS Chem Biol 2013, 8, 1291-1302 and Sanvitale et al., PLoS One 2013, 8, e62721.

For another experiment, the target named is T1, TEC (Homo sapiens, UniProt P42680).
T1 sequence (P42680 1-631): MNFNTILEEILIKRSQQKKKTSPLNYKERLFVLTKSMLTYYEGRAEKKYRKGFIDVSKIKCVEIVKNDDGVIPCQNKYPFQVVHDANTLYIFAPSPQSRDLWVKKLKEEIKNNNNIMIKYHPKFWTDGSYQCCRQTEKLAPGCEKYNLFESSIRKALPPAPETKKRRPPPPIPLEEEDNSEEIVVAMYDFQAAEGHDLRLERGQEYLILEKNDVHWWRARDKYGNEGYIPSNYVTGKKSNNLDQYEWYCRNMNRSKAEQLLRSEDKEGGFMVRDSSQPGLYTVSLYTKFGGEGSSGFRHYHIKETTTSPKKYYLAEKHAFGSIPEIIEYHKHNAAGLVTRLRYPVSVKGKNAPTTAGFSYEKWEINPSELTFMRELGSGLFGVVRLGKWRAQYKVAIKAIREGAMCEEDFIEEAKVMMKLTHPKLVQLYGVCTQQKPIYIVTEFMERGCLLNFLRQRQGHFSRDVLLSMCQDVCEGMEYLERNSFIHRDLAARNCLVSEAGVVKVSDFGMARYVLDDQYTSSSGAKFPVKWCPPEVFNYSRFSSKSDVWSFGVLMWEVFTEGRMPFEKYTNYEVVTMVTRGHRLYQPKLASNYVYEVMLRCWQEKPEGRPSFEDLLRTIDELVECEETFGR
Put plainly: Kinome profiling TEC. To be noted: read-out: Inhibitory activity TEC; for inhibition at 0.1 µM: 100 nM. The procedure: as §1

In another experiment the target is T2, TTK (Homo sapiens, UniProt P33981).
T2 sequence (P33981 1-857): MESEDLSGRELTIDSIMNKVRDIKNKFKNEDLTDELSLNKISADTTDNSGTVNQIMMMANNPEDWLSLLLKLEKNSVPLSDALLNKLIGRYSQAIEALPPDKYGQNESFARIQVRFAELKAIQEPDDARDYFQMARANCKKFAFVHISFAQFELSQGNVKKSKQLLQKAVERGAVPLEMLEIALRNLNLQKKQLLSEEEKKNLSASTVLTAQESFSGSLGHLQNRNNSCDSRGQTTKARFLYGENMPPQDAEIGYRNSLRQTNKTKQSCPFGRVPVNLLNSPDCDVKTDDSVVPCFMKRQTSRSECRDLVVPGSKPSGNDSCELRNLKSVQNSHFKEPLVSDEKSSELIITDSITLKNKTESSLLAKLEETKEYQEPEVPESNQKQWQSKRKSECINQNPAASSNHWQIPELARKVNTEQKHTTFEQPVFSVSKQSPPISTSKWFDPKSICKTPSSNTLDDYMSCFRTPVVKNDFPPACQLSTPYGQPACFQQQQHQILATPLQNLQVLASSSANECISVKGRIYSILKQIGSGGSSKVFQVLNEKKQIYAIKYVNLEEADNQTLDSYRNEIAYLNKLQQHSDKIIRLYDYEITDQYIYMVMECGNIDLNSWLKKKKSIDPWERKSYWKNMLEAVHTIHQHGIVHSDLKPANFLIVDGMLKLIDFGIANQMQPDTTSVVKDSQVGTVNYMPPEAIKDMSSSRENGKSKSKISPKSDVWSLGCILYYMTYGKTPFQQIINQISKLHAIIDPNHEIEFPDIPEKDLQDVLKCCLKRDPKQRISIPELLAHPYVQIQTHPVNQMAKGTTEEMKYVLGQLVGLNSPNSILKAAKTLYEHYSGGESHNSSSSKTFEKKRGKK
Put plainly: Kinome profiling TTK. The following applies: read-out: Inhibitory activity TTK; for inhibition at 0.1 µM: 100 nM. The procedure:
as §1

Another experiment has as its target MKNK1 (Homo sapiens, UniProt Q9BUB5). Put plainly: Kinome profiling MKNK1. To be noted: read-out: Inhibitory activity MKNK1; for inhibition at 0.1 µM: 100 nM. How it is done:
as §1

Another experiment addresses EPH-A2 (Homo sapiens, UniProt P29317). Put plainly: Kinome profiling EPH-A2. The following applies: read-out: Inhibitory activity EPH-A2; for inhibition at 0.1 µM: 100 nM. How it is done: as §1
For a further experiment, the target named is T3, BRSK1 (Homo sapiens, UniProt Q8TDC3).
T3 sequence (Q8TDC3 1-778): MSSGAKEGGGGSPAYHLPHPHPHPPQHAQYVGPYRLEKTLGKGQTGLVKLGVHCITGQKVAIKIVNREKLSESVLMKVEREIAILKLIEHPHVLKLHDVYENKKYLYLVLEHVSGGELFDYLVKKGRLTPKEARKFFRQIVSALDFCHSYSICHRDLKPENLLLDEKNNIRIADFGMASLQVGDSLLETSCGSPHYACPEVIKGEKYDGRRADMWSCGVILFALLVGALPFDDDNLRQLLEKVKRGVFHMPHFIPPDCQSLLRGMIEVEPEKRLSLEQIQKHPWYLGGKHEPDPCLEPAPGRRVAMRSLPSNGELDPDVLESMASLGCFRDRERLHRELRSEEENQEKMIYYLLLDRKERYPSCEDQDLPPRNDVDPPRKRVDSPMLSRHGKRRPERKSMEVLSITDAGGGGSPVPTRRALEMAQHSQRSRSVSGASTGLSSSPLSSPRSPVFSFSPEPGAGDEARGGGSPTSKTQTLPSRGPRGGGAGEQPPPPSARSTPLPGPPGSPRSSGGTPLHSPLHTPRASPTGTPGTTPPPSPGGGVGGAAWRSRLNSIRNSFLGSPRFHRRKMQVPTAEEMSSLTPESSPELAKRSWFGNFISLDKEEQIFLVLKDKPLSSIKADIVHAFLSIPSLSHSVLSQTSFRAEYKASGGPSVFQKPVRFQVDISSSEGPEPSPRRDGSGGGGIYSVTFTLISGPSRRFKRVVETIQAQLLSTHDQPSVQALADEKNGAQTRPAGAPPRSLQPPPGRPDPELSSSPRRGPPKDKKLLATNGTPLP
Put plainly: Kinome profiling BRSK1. The following applies: read-out: Inhibitory activity BRSK1; for inhibition at 0.1 µM: 100 nM. The procedure:
as §1

The next experiment concerns the target CAMK1δ (Homo sapiens, UniProt Q8IU85). Description: Kinome profiling CAMK1δ. The following applies: read-out: Inhibitory activity CAMK1δ; for inhibition at 0.1 µM: 100 nM. How it is done: as §1
A further experiment addresses PIM3 (Homo sapiens, UniProt Q86V86). Description: Kinome profiling PIM3. To be noted: read-out: Inhibitory activity PIM3; for inhibition at 0.1 µM: 100 nM. The procedure:
as §1

EPH-A2, sequence (P29317 24-976): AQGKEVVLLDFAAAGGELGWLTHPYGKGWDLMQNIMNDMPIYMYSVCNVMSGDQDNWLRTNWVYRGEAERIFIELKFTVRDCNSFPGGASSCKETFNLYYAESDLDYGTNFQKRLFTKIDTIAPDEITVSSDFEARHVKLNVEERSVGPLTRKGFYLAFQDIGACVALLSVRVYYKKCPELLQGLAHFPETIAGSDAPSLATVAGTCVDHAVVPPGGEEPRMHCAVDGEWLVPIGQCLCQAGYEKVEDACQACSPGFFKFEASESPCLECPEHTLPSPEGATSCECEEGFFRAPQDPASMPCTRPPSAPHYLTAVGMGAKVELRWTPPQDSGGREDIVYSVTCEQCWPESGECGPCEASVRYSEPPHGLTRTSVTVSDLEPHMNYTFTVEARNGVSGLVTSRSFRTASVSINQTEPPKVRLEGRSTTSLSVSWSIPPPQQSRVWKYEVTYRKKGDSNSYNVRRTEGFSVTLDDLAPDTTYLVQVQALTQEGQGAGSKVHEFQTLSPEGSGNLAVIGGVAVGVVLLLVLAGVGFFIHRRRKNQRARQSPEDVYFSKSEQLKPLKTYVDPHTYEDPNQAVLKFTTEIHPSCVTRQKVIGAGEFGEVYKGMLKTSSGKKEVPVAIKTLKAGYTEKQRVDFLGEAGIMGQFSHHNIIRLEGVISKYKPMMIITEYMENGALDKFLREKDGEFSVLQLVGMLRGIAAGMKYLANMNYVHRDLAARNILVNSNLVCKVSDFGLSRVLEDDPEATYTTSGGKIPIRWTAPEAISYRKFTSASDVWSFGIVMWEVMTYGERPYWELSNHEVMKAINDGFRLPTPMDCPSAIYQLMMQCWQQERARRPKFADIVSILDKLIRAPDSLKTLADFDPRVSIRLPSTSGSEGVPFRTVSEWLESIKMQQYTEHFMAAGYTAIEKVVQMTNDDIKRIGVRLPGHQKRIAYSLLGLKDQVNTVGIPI
MKNK1, sequence (Q9BUB5 whole entry): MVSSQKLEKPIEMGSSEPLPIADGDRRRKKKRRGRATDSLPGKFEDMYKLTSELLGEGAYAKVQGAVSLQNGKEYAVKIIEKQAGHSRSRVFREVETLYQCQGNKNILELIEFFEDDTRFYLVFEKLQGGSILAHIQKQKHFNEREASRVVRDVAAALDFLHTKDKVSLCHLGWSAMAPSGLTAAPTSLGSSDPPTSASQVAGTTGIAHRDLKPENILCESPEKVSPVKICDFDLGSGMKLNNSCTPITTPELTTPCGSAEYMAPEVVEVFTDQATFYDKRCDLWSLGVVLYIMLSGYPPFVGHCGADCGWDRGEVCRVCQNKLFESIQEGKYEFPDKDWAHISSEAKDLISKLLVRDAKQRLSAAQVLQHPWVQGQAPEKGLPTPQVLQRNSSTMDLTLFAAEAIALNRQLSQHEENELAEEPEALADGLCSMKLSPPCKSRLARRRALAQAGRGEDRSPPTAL
BRK, sequence (Q13882 whole entry): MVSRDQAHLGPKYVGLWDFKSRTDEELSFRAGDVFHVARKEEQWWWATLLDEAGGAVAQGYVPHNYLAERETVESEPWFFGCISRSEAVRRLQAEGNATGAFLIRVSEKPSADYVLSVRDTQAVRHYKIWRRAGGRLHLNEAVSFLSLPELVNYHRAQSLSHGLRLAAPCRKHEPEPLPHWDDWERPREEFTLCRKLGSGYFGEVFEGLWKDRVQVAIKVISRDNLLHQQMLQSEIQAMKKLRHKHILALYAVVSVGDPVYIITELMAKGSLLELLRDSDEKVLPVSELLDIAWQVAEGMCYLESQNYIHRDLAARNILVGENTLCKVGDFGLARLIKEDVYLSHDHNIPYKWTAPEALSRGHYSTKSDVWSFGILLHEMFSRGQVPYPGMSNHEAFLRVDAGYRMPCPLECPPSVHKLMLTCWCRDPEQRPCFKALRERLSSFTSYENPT
CAMK1δ, sequence (Q8IU85 whole entry): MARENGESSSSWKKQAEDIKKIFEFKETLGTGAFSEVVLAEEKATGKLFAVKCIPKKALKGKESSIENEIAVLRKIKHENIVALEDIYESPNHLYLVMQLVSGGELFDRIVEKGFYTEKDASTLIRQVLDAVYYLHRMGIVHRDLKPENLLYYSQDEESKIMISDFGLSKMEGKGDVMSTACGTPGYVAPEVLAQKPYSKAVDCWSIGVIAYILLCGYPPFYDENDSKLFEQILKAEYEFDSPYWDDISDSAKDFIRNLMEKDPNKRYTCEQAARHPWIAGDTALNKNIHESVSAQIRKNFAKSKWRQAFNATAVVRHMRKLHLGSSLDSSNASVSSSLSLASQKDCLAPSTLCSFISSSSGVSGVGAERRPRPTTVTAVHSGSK

For `COc1cc(-c2cc(-c3ccc(N4CCNCC4)cc3)cnc2N)cc(OC)c1OC` [Compound 15, 5-(4-(piperazin-1-yl)phenyl)-3-(3,4,5-trimethoxyphenyl)pyridin-2-amine], the inhibition at 0.1 µM on BRK is 43%; at TEC, 5%; on TTK it was 13%; on MKNK1 it was 3%; on EPH-A2, -3%; on BRSK1 it was 0%. Besides, the inhibition at 0.1 µM was 0% at CAMK1δ and 1% on PIM3. Moreover, the inhibition at 1 µM was 92% on BRK; 24% at TEC; 18% at TTK; 5% on MKNK1; 4% at EPH-A2; 0% on BRSK1. For the same molecule, the inhibition at 1 µM on CAMK1δ and at PIM3 was -1% each time.

For the molecule `COc1cc(-c2cc(-c3ccc(N4CCNCC4)cc3)cnc2C)cc(OC)c1OC` [Compound 10, 1-(4-(6-methyl-5-(3,4,5-trimethoxyphenyl)pyridin-3-yl)phenyl)piperazine], the inhibition at 0.1 µM on BRK is 7%; on TEC, 0%; at TTK, 3%; on MKNK1 it was 3%; at EPH-A2, -2%; at BRSK1, 1%. For the same molecule, the inhibition at 0.1 µM stood at 1% on CAMK1δ and 3% on PIM3. For the same molecule, the inhibition at 1 µM was found to be 36% at BRK; 0% on TEC; 4% at TTK; 5% on MKNK1; 1% on EPH-A2; 1% at BRSK1. The results for the inhibition at 1 µM on CAMK1δ and on PIM3 were 2% and 4%, respectively.
